Source: paper PMC6272399, “Anti-Proliferative Effect and Induction of Apoptosis in Androgen-Independent Human Prostate Cancer Cells by 1,5-Bis(2-hydroxyphenyl)-1,4-pentadiene-3-one” (Molecules, 2015)

How the values were obtained:
PC-3 cells [1] = test: MTT cytotoxicity (cell viability) assay, PC-3; type: cell-based, human
Protocol: (§1) Cell viability was determined by the MTT [3-(4,5-dimethylthiazol-2-yl)-2,5-diphenyltetrazolium bromide] assay, as previously described by Mosmann with modifications. Briefly, cells were detached from the tissue culture flask and pelleted by centrifugation at 1000 rpm for 5 min. Then, the density of the viable cells was counted using a haemocytometer. Cells were then plated in a 96-well flat bottom micro-titer plate (Nunc) at a concentration of 10^4 cells/mL and incubated in a 5% CO2 incubator at 37 °C overnight to allow the cells to adhere to the bottom of the wells. After 24 h, the media was aspirated off and replaced with fresh media containing sample compounds (curcumin and curcumin analogues) of seven different concentrations ranging from 1.56 µM–100 µM and incubated at 37 °C, 5% CO2 for 72 h. Separately, the sample compounds were prepared in a stock solution of 50 mM in 100% dimethyl sulfoxide (DMSO, Molecular Biology Grade, Sigma-Aldrich, St. Louis, MO, USA) and diluted in the culture media to a working concentration of 200 µM. Curcumin, the parent compound which was used as the positive control was also prepared in the similar manner. A two-fold serial dilution was done for each sample in triplicates down the columns of the plate, yielding a final volume and concentration of 100 µL in 0.2% DMSO in each wells. Following treatment, 50 µL MTT solutions (0.5 mg/mL in PBS) was added to each well and incubated for another 4 h at 37 °C in a humidified 5% CO2 incubator. The supernatant was replaced with 100 µL of DMSO and the optical density (OD) was measured at 570/650 nm using a micro-plate ELISA reader (Bio-Rad Laboratories, Hercules, CA, USA). The percentage of viable cells was calculated based on the ratio of the corrected absorbance of sample-treated cells to the corrected absorbance of the control (0.2% DMSO-treated cells) multiplied by 100. The percentage of cell viability was determined as follows: % Cell viability= OD of treated cells /OD of control ×100
(§2) For each compound tested, the EC50 value was generated from the log dose-response curves for each cell line using the Graphpad Prism version 5.04 for Windows (Graphpad Software, La Jolla, CA, USA). […] Cytotoxicity of each tested compound is expressed as the EC50 value. Based on the EC50 values, selectivity index (SX) value was also determined. Selectivity index is a special parameter applied as a selectivity indicator of tested compounds towards cancer cells. The SX represents the ratio of EC50 value obtained in toxicity testing using the normal cell lines to the EC50 values of the toxicity testing of the cancer cells, and then multiplied by 100. All the compounds were assessed for their potential toxicity against normal, non-cancerous cells. […] The SX values were calculated using the following equation: SX = EC50 (normal cells)/EC50 (cancer cells) × 100

DU 145 cells [2] = test: MTT cytotoxicity (cell viability) assay, DU 145; type: cell-based, human
Protocol: as §1, §2

[3] = test system: WI-38 (human lung fibroblast cells); test: MTT cytotoxicity assay, normal WI-38; type: cell-based; settings: normal cell line, 72 h treatment, mean ± SD, read-out: EC50 Values (µM) of Compounds on Cell Lines WI-38
Protocol: as §1, §2

PC-3 cells [4] = test: BrdU cell proliferation assay, PC-3; type: cell-based, human; settings: PC-3, BrdU
Protocol: (§3) The anti-proliferative effects of compound on treated cells, was measured using the BrdU cell proliferation assay kit (Roche Applied Science Diagnostics, Indianapolis, IN, USA) according to the manufacturer’s protocol. The assay was based on incorporation of BrdU during DNA synthesis in proliferating cells. Cells were plated at a concentration of 10^4 cells/mL in a 96-well microtiter plate and incubated overnight. The cells were treated with compounds and curcumin (concentrations ranging from 1.56 µM–100 µM) as positive control for 24, 48 and 72 h respectively. Then, BrdU labeling solution (5 µL, diluted by 1/100 in culture media) was added to each well and incubated for 2 h at 37 °C. The media was replaced with fix/denaturing solution (100 µL) and incubated for 30 min at room temperature. Then, the fix/denaturing solution was removed by tapping off and followed by addition of 50 µL anti-BrdU antibody (50 µL, diluted by 1/100 in dilution buffer) to each well and further incubated for another 90 min at room temperature. Next, the cells were washed 3 times with wash buffer and substrate solution (50 µL) was added to each well. The plate was left for 10 min at room temperature in the dark and the absorbance was measured at a wavelength of 370 nm with a reference wavelength of 492 nm using a micro-plate ELISA reader (Bio-Rad). The percentage of BrdU incorporation was determined based on the ratio of absorbance of sample treated-cells to absorbance of control (untreated cells/DMSO only) multiplied by 100.

DU 145 cells [5] = test: BrdU cell proliferation assay, DU 145; type: cell-based, human; settings: DU 145, BrdU
Protocol: as §3

PC-3 cells [6] = test: AO/EB double staining, morphology and quantification of apoptotic and necrotic cells, PC-3; type: cell-based, human
Protocol: Cell morphological changes were assessed by the differential staining DNA-intercalate fluorescent dyes acridine orange (AO) and ethidium bromide (EB). Cells (3 × 10^5) were seeded in a 6-well tissue culture plates, treated with MS17 at various concentrations (EC50, 2 × EC50, 3 × EC50) and incubated for 12, 24, 48 and 72 h time intervals. After incubation, cell pellets were suspended in 50 µL of cold PBS. To each samples, 10 µL of cell suspension was added with 1 µL of AO/EB dye mixture (1 part of 100 µg/mL of AO in PBS; 1 part of 100 µg/mL of EB in PBS) prior to microscopic examination. Ten microliter of the cell suspension mixed with the dye mixture was placed on a glass microscopic slide covered with a cover slip and was observed and photographed with a fluorescence microscope using a fluorescein filter (BX41, Olympus, Center Valley, PA, USA). A minimum of 200 total targeted cells were counted per sample and the percentage of cells from each population (viable, early apoptosis, late apoptosis and necrosis) was calculated. The experiment was conducted in triplicates. Untreated cells containing DMSO alone were used as negative control.

prostate cancer cells = test system: prostate cancer cells; parameters: method as in PMID 21796654; settings: compound labeled ca27; cited from earlier work

Compound: O=C(C=Cc1ccccc1O)C=Cc1ccccc1O [MS17, 1,5-bis(2-hydroxyphenyl)-1,4-pentadiene-3-one]
- EC50 (PC-3 cells [1]; Homo sapiens, PC-3, MTT, 72 h treatment, mean ± SD, three experiments, read-out: EC50 Values (µM) of Compounds on Cell Lines PC-3): 4.4 ± 0.3 µM
- dose from which decrease in cell viability is significant (PC-3 cells [1]; PC-3, MTT, vs untreated): 3.1 µM
- Selective index (SX) WI-38 vs PC-3 (PC-3 cells [1]; SX = EC50 (WI-38)/EC50 (PC-3) × 100): 117.4
- Selective index (SX) WRL68 vs PC-3 (PC-3 cells [1]; SX = EC50 (WRL68)/EC50 (PC-3) × 100): 124.9
- dose from which decrease in cell viability is significant (DU 145 cells [2]; DU 145, MTT, vs untreated): 6.3 µM
- EC50 (DU 145 cells [2]; Homo sapiens, DU-145, MTT, 72 h treatment, mean ± SD, three experiments, read-out: EC50 Values (µM) of Compounds on Cell Lines DU 145): 4.1 ± 0.8 µM
- Selective index (SX) WI-38 vs DU 145 (DU 145 cells [2]; SX = EC50 (WI-38)/EC50 (DU 145) × 100): 126.3
- Selective index (SX) WRL68 vs DU 145 (DU 145 cells [2]; SX = EC50 (WRL68)/EC50 (DU 145) × 100): 134.3
- EC50 [3]: 5.2 ± 1.2 µM
- concentration from which anti-proliferative activity is significant (PC-3 cells [4]; 24 h): 6.3 µM
- concentration from which anti-proliferative activity is significant (PC-3 cells [4]; 48 h): 12.5 µM
- concentration from which anti-proliferative activity is significant (PC-3 cells [4]; 72 h): 12.5 µM
- concentration from which anti-proliferative activity is significant (DU 145 cells [5]; 24 h): 6.3 µM
- concentration from which anti-proliferative activity is significant (DU 145 cells [5]; 48 h): 6.3 µM
- concentration from which anti-proliferative activity is significant (DU 145 cells [5]; 72 h): 12.5 µM
- morphological observation of cell nuclei (AO/EB) (PC-3 cells [6]; PC-3, MS17-treated vs untreated): typical signs of apoptosis such as cell shrinkage, formation of apoptotic bodies and membrane blebbing
- necrotic cells (PC-3 cells [6]; PC-3, all three doses, 12 and 24 h): less than 5%
- growth inhibition of prostate cancer cells (prostate cancer cells): able to inhibit the growth of prostate cancer cells at a concentration below that typically used for curcumin
